Test results reported in paper PMC4893628, “Chalcone-based Selective Inhibitors of a C4 Plant Key Enzyme as Novel Potential Herbicides” (Scientific Reports, 2016).
Read-outs that look alike come from different tables or passages of the source.

How the values were obtained:
F. trinervia PEPC = biological target: T1, F. trinervia PEPC (Flaveria trinervia, UniProt P30694); assay: biochemical; type: biochemical; conditions: C4 PEPC; read-out: IC50 F. trinervia PEPC
T1 construct: the full-length ppcA gene of PEPC from F. trinervia (EMBL-Bank X61304); made in house; host or cells: Escherichia coli BL21(DE3)
T1 sequence (P30694 1-966): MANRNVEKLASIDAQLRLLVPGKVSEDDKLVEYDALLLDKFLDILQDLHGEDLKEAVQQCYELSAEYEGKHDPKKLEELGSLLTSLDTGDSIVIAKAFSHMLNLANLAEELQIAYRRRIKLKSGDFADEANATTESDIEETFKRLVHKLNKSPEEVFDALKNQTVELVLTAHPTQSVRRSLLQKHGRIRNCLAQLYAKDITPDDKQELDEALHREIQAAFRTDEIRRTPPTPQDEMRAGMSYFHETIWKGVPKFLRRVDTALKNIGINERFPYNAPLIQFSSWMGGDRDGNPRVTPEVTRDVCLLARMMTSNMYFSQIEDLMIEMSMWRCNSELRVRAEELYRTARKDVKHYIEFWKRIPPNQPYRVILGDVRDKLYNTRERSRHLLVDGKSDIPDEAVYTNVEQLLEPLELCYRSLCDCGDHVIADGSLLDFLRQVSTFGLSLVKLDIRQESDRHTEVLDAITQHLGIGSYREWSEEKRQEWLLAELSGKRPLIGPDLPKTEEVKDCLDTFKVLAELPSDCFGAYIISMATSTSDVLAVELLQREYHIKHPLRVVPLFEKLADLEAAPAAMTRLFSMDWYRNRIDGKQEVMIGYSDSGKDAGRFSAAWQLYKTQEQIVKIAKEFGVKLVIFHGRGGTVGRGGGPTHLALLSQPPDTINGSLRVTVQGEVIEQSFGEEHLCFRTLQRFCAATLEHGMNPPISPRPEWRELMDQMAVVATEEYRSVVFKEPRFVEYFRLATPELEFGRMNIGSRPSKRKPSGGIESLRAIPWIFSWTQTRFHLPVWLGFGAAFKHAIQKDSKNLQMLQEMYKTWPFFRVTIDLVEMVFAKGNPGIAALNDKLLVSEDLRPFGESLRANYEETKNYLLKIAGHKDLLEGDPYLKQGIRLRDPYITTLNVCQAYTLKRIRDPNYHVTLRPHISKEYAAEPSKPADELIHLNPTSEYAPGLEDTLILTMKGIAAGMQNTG

Bacillus subtilis 168 = assay: Bacterial growth in microscale cultivation, B. subtilis; type: cell-based; conditions: for activity at 55 µM / activity at 110 µM / activity at 550 µM / Lag Phase: relative to control; for Influence on bacterial growth: highest concentration tested (10× IC50) if not stated otherwise
Outline: (§1)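 In a BioLector microscale system shaken at 1200 rpm, growth was tracked by backscatter at 620 nm, and final signal, growth rate (h⁻¹) and lag-phase length were scored against DMSO-only controls. Starting OD600 was 0.5, or 0.25 for B. subtilis. Inhibitors came from DMSO stocks, with trans-chalcone capped at 400 μM and 2'-hydroxychalcone at 100 μM.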

[1] = tested on: Corynebacterium glutamicum ATCC13032; assay: Bacterial growth in microscale cultivation, C. glutamicum; type: cell-based; conditions: for activity at 55 µM / activity at 110 µM / activity at 550 µM: Corynebacterium glutamicum; for activity at 55 µM / activity at 110 µM / activity at 550 µM / Lag Phase: relative to control
Outline: as §1

IC50 (F. trinervia PEPC): 42.1 ± 11.3 µM
Structure (SMILES): O=C(/C=C/c1ccccc1)c1cc(O)ccc1O [Compound 5, 2′,5′-Dihydroxychalcone]
growth (Bacillus subtilis 168; 550 μM, minimal media): abolished growth
activity at 55 µM (Bacillus subtilis 168; Bacillus subtilis, 168, complex medium, 55 µM, read-out: Final Backscatter): 96.2%
activity at 55 µM (Bacillus subtilis 168; Bacillus subtilis, 168, complex medium, 55 µM, read-out: Growth rate): 108%
activity at 110 µM (Bacillus subtilis 168; Bacillus subtilis, 168, complex medium, 110 µM, read-out: Final Backscatter): 98%
activity at 110 µM (Bacillus subtilis 168; Bacillus subtilis, 168, complex medium, 110 µM, read-out: Growth rate): 108%
activity at 550 µM (Bacillus subtilis 168; Bacillus subtilis, 168, complex medium, 550 µM, read-out: Final Backscatter): 76.3%
activity at 55 µM (Bacillus subtilis 168; Bacillus subtilis, 168, minimal medium, 55 µM, read-out: Final Backscatter): 96.4%
activity at 55 µM (Bacillus subtilis 168; Bacillus subtilis, 168, minimal medium, 55 µM, read-out: Growth rate): 107%
activity at 110 µM (Bacillus subtilis 168; Bacillus subtilis, 168, minimal medium, 110 µM, read-out: Final Backscatter): 102%
activity at 110 µM (Bacillus subtilis 168; Bacillus subtilis, 168, minimal medium, 110 µM, read-out: Growth rate): 110%
activity at 550 µM (Bacillus subtilis 168; Bacillus subtilis, 168, minimal medium, 550 µM, read-out: Final Backscatter): 30.5%
Influence on bacterial growth (Bacillus subtilis 168; Complex medium): fbs↓ lag↑
Influence on bacterial growth (Bacillus subtilis 168; Minimal medium): no growth (10× IC50)
Lag Phase (Bacillus subtilis 168; complex medium, 55 µM): 102,3%
Lag Phase (Bacillus subtilis 168; complex medium, 110 µM): 109,3%
Lag Phase (Bacillus subtilis 168; complex medium, 550 µM): 177,1%
Lag Phase (Bacillus subtilis 168; minimal medium, 55 µM): 103,5%
Lag Phase (Bacillus subtilis 168; minimal medium, 110 µM): 108,5%
growth ([1]; 550 μM, minimal media): abolished growth
activity at 55 µM ([1]; ATCC13032, complex medium, 55 µM, read-out: Final Backscatter): 106%
activity at 55 µM ([1]; ATCC13032, complex medium, 55 µM, read-out: Growth rate): 107%
activity at 110 µM ([1]; ATCC13032, complex medium, 110 µM, read-out: Final Backscatter): 103%
activity at 110 µM ([1]; ATCC13032, complex medium, 110 µM, read-out: Growth rate): 110%
activity at 550 µM ([1]; ATCC13032, complex medium, 550 µM, read-out: Final Backscatter): 118%
activity at 550 µM ([1]; ATCC13032, complex medium, 550 µM, read-out: Growth rate): 79%
activity at 55 µM ([1]; ATCC13032, minimal medium, 55 µM, read-out: Final Backscatter): 99.7%
activity at 55 µM ([1]; ATCC13032, minimal medium, 55 µM, read-out: Growth rate): 86.9%
activity at 110 µM ([1]; ATCC13032, minimal medium, 110 µM, read-out: Final Backscatter): 101%
activity at 110 µM ([1]; ATCC13032, minimal medium, 110 µM, read-out: Growth rate): 79.5%
activity at 550 µM ([1]; ATCC13032, minimal medium, 550 µM, read-out: Final Backscatter): 18.8%
Influence on bacterial growth ([1]; Minimal medium, highest concentration tested (10× IC50) if not stated otherwise): μ↓ (≥IC50), no growth (10× IC50)
Lag Phase ([1]; complex medium, 55 µM): 96,2%
Lag Phase ([1]; complex medium, 110 µM): 98,4%
Lag Phase ([1]; complex medium, 550 µM): 120,7%
Lag Phase ([1]; minimal medium, 55 µM): 114,0%
Lag Phase ([1]; minimal medium, 110 µM): 133,1%
